Paper PMC3655044, “Construction of a chimeric thermoacidophilic beta-endoglucanase” (BMC Biochemistry, 2013)

System: T1, CelA-SSO1949-CelA
T1 construct: 70 aa CelA + 163 aa SSO1949 + 29 aa CelA, 262 aa, ~29 kDa, no purification tag
Test: FRET fluorescence assay, initial rates
Format: biochemical, Thermotoga maritima; Saccharolobus solfataricus
Conditions: 80°C; pH 3; 0.1 M sodium phosphate
Description: FRET fluorescence assay, initial rates on CelA-SSO1949-CelA

- Km: 1.74 ± 0.15 µM
Compound: CN(C)c1ccc(/N=N/c2ccc(NC(=S)N[C@H]3[C@H](O)[C@@H](O)[C@H](O[C@H]4[C@H](O)[C@@H](O)[C@H](O[C@H]5[C@H](O)[C@@H](O)[C@H](O[C@H]6[C@H](O)[C@@H](O)[C@H](O[C@H]7[C@H](O)[C@@H](O)[C@H](O[C@H]8[C@H](O)[C@@H](O)[C@H](SCC(=O)NCCNc9cccc%10c(S(=O)(=O)O)cccc9%10)O[C@@H]8CO)O[C@@H]7CO)O[C@@H]6CO)O[C@@H]5CO)O[C@@H]4CO)O[C@@H]3CO)cc2)cc1 [fluorescent cellohexaoside, sodium N-{2-N-[(S-(4-deoxy-4-dimethylamino-phenylazophenylthioureido-β-D-glucopyranosyl)-(1→4)-β-D-glucopyranosyl-(1→4)-β-D-glucopyranosyl-(1→4)-β-D-glucopyranosyl-(1→4)-β-D-glucopyranosyl-(1→4)-β-D-glucopyranosyl)-2-thioacetyl]aminoethyl}-1-naphthylamine-5-sulphonate]
